Assay [1] deals with T1, sarcoplasmic reticulum Ca^2+-ATPase (Canis lupus familiaris, UniProt O46674).
T1 construct: sarcoplasmic reticulum from both post-ischemic and non-ischemic regions of the left ventricle of dogs; from tissue; host or cells: dog left ventricle (LAD occluded 30 min, reperfused 30 min), sarcoplasmic reticulum fraction
In words: Sarcoplasmic reticulum Ca2+-ATPase activity of myocardium collected after in vivo drug administration (Pi colorimetry). In kind it is biochemical, dog. The protocol: After hemodynamic stability is established following operation, the dissected portion of LAD was occluded for 30 minutes and then reperfused for 1 hour. At the same time, the cardiac function (%SS) in the above-described ischemic/reperfused region was continuously monitored through-out the protocol.
The animals were randomly grouped into two groups, one consisting of animals to be administered with the medicament of the present invention (Drug administration group; N=6) and the other of control group (N-6). The dogs of drug administration group were intravenously administered with the medicament of the present invention (3 μg/kg) into the right femoral vein 5 minutes before reperfusion, followed by continuous infusion at 30 μg/kg/hr. Dogs of the control group were administered with the equal amount of saline.
After 1-hour reperfusion, their hearts were isolated and the myocardium in post-ischemic region and non-ischemic region of the left ventricles were collected from which the fractions having sarcoplasmic reticulum Ca^2+-ATPase activity were extracted to be subjected to protein assay (Bradford method) and stored at −80° C. The defrozen fractions were used to determine Ca^2+-ATPase activity. The activity was determined by measuring the amount of the generated inorganic phosphate (Pi) by colorimetry using phosphor/molybdic acid and malachite green (μmoles Pi/mg protein/min).
Next, results obtained from the Ca^2+-ATPase activity assay of the sarcoplasmic reticulum collected from each region are shown in FIGS. 2 and 3.

Assay [2] concerns the target T1, sarcoplasmic reticulum Ca^2+-ATPase. In words: Direct effect in vitro on sarcoplasmic reticulum Ca2+-ATPase activity. In kind it is biochemical, dog. Conditions: preincubation 37° C. 5 min; for sarcoplasmic reticulum Ca^2+-ATPase activity, post-ischemic region, in vitro: control 0.045±0.005; for sarcoplasmic reticulum Ca^2+-ATPase activity, non-ischemic region, in vitro: control 0.057±0.003. The protocol:
The Ca^2+-ATPase activity of the sarcoplasmic reticulum from both post-ischemic and non-ischemic regions of the left ventricle of dogs, in which LAD was occluded for 30 minutes followed by reperfusion for 30 minutes, was measured in the same manner as in Example 1. The direct effect of the medicament of the present invention on the sarcoplasmic reticulum was examined in vitro by determining the amount of inorganic phophorous generated during the reaction for 15 minutes, which was triggered by adding ATP to the reaction solution, with the preincubated medicament of the present invention at 37° C. for 5 minutes.
For each of post-ischemic region and non-ischemic region (N=6), three groups were tested; control group which was preincubated with H2O, groups with low level dosage (10^−7 M of the medicament of the present invention was administered), and group with high level dosage (10^−6 M of the medicament of the present invention was administered)

Assay [3] has as its system ischemic/reperfused myocardium. In words: Regional cardiac function (%SS) in brief-ischemic/reperfused myocardium in dogs. The class given is in vivo. To be noted: dog; 30 min LAD occlusion, 1 h reperfusion; 3 μg/kg i.v. 5 min before reperfusion then 30 μg/kg/hr infusion. On the procedure:
The chest of mongrel dogs (adult, male and female) was opened under anesthesia with pentobarbital (30 mg/kg, i.v.) and a portion of the left coronary anterior descending (LAD) was dissected. A catheter-tip-pressure transducer (Millar; MPC-500) was inserted from the left carotidartery into the left ventricle to determine the left ventricular pressure and its first differential value (dP/dt). A pair of crystal probes were mounted in the LAD region to determine changes in regional segment length. Diastolic segment length (EDL; threshold point of dP/dt) and systolic segment length (ESL; dP/dt(−) max point) were determined from the waveform of dP/dt, and the regional segment shortening (%SS) in the ischemic/reperfused myocardium was calculated as follows: %SS=(EDL−ESL)/EDL×100. After hemodynamic stability is established following operation, the dissected portion of LAD was occluded for 30 minutes and then reperfused for 1 hour. At the same time, the cardiac function (%SS) in the above-described ischemic/reperfused region was continuously monitored through-out the protocol. The animals were randomly grouped into two groups, one consisting of animals to be administered with the medicament of the present invention (Drug administration group; N=6) and the other of control group (N-6). […]

T1 sequence (O46674 whole entry, the tested form may be a part): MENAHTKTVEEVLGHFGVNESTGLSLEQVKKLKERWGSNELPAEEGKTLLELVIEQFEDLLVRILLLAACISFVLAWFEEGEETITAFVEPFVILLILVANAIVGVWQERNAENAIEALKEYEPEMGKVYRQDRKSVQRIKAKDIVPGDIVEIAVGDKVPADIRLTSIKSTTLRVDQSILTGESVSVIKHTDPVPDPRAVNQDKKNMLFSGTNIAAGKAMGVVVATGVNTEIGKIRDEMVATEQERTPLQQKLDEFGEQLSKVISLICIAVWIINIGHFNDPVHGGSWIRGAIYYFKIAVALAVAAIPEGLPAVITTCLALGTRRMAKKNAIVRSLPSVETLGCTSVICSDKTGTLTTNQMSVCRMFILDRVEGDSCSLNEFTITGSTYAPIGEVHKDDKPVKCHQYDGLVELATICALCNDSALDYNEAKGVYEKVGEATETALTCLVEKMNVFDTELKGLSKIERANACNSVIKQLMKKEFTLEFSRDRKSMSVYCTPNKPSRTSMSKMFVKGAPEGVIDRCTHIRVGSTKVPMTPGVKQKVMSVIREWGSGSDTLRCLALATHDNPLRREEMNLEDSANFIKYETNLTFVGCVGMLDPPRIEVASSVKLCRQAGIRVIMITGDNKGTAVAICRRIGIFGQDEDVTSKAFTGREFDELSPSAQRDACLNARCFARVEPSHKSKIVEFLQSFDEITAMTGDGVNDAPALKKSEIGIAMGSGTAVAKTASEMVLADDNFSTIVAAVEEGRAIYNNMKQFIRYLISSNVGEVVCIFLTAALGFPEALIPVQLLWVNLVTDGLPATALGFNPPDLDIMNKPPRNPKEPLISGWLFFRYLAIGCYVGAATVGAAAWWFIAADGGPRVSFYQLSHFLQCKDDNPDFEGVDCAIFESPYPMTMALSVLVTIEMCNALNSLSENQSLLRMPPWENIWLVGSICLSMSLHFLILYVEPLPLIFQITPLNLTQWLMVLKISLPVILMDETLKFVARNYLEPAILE

In the case of `Cc1ccc(N2CCNCC2)c(S(=O)(=O)O)c1` [medicament of the present invention, 2-(1-piperazinyl)-5-methylbenzenesulfonic acid derivative monohydrate], in assay [1] (Ca^2+ 10 μM, dog dosed in vivo 3 μg/kg i.v. + 30 μg/kg/hr, control group 0.070±0.004), the “sarcoplasmic reticulum Ca^2+-ATPase activity, post-ischemic region” value was found to be 0.090±0.008 μmol Pi/mg min. In assay [1] (Ca^2+ 10 μM, dog dosed in vivo 3 μg/kg i.v. + 30 μg/kg/hr, control group 0.089±0.009), the “sarcoplasmic reticulum Ca^2+-ATPase activity, non-ischemic region” value turned out to be 0.088±0.006 μmol Pi/mg min. The “sarcoplasmic reticulum Ca^2+-ATPase activity, post-ischemic region, in vitro” value in assay [2] (10^−6 M (high concentration)) was 0.062±0.005 μmol Pi/mg min; in assay [2] (10^−7 M (low concentration)) it was 0.057±0.003 μmol Pi/mg min. Moreover, the figures for the “sarcoplasmic reticulum Ca^2+-ATPase activity, non-ischemic region, in vitro” value in assay [2] (10^−6 M (high level dosage)) and in assay [2] (10^−7 M (low level dosage)) were 0.060±0.003 μmol Pi/mg min and 0.062±0.002 μmol Pi/mg min, respectively. Moreover, the “regional cardiac function (%SS) in post-reperfusion region compared to control group” value in assay [3] is reported as “significantly improved”.
With `C/C=C(/C)C(=O)O[C@H]1C(C)=C2[C@H]([C@@H]1OC(=O)CCCCCCC)[C@@](C)(OC(C)=O)C[C@H](OC(=O)CCC)[C@@]1(O)[C@H]2OC(=O)[C@@]1(C)O` [Thapsigargin, reference compound], the “inhibition of the ATPase activity of the sarcoplasmic reticulum fraction” value in assay [1] (1 μM) is reported as “completely inhibited”.

Source of the values: patent publication US6407113B1, “Medicament for treatment of diastolic dysfunction” (Mitsubishi Chemical Corporation, priority 1998, dated 2002).
